{"source": "patent US20230313199A1", "about": "“TARGET FOR MODULATING BODY MASS” (Massachusetts Institute of Technology, priority 2020, published 2023)", "key": {"[1]": {"target": "T1, HP motif peptide (Homo sapiens, UniProt Q9UPI3)", "T1 construct": "a synthetic 14-amino acid HP motif peptide; made in house; host or cells: chemical solid-phase synthesis (Koch Institute Biopolymers & Proteomics Core)", "experiment": "Heme absorbance-shift assay with wild-type HP motif peptide", "assay_type": "binding", "conditions": "100 μM heme, various concentrations of HP motif peptide", "method": "Peptide synthesis. Wild-type HP motif peptide (HPSALAQPSGLAHP) and mutant HP motif peptide (APSALAQPSGLAAP) were synthesized using solid-phase synthesis and purified using HPLC by the Biopolymers & Proteomics Core at the Koch Institute for Integrative Cancer Research.\nHeme absorbance-shift assay. Hemin was prepared fresh before each experiment. Approximately 20 mg of hemin (Sigma) was placed in a fresh tube and resuspended with 1 mL of DMSO. The hemin solution was slowly diluted while mixing with 1 mL of 2× buffer C (25 mM HEPES-NaOH pH 7.8, 10 mM NaCl), and aggregated hemin was eliminated by passing the solution through a 0.2 μm filter unit. Hemin concentration was determined by diluting the filtered solution with 1× buffer C 1:100 and using the extinction coefficient of 58,400 cm^−1M^−1 at 385 nm. For each reaction, the 200 μL reaction mix containing 100 μM hemin, 25 mM HEPES-NaOH pH 7.8, 10 mM NaCl, and various concentrations of wild-type or mutant NTD protein, was placed in a transparent 96-well plate. Absorbance intensity was measured using Tecan Infinite M200 Pro microplate reader, between 330 and 550 nm using 5 nm steps. The absorbance intensity for dissolved hemin was subtracted from absorbance intensity from hemin incubated with various concentrations of protein."}, "[2]": {"test_system": "THP-1 cells", "experiment": "Thermogenesis by fluorescent polymeric thermometer (FPT), flow cytometry", "assay_type": "cell-based, human", "conditions": "heme treatment for one hour", "method": "(§1) In the second approach, we used fluorescent polymeric thermometer (FPT), which we synthesized in-house (see above). Parental and knockout THP-1 cells were mixed together, washed and incubated with FPT in 5% w/v glucose solution for 6 hrs. The cells were washed with PBS twice and reseeded in dishes with glass bottom that was coated with poly-lysine. The cells were imaged under Confocal Laser-Scanning Microscopy at 37° C. Alternatively, THP-1, MCF7, 293T, 7CKO, SERCA2b^−/− cells were incubated with FPT and control polymer overnight and followed with vehicle or hematin treatment for 1 hour. Then the fluorescence intensities were determined by a flow cytometer."}, "[3]": {"test_system": "MCF7 cells", "experiment": "Thermogenesis by FPT, parental MCF7 cells", "assay_type": "cell-based, human", "conditions": "heme for 1 hour", "method": "Shown are representative graphs of OCR output of the indicated cells with or without hematin treatment and their responses to oligomycin, FCCP, and rotenone plus antimycin A (FIG. 12B), basal OCR (FIG. 12C), maximal OCR (FIG. 12D), and ECAR (FIG. 12E) from two separate experiments with n=10 biologically independent samples. Data are presented as mean value±standard deviation. Each dot represents one technical replicate. […] Parental and knockout cells were incubated with no probe or FPT for 6 hours, and then washed twice. A portion of FPT-treated cells was treated with heme for 1 hour. FPT fluorescence intensity was quantified by flow cytometry. Shown are representative plots from two separate experiments. P-values were calculated using two-way ANOVA (***p<0.001).\nas §1, with “Alternatively, THP-1, MCF7, 293T, 7CKO, SERCA2b^−/− cells were incubated with FPT and control polymer overnight and followed with vehicle or hematin treatment for 1 hour.” left out"}, "[4]": {"target": "T2, MFSD7C and SERCA2b (Mus musculus, UniProt Q91X85)", "T2 construct": "expressed in transfected cells; called 293T", "T2 sequence (Q91X85 whole entry)": "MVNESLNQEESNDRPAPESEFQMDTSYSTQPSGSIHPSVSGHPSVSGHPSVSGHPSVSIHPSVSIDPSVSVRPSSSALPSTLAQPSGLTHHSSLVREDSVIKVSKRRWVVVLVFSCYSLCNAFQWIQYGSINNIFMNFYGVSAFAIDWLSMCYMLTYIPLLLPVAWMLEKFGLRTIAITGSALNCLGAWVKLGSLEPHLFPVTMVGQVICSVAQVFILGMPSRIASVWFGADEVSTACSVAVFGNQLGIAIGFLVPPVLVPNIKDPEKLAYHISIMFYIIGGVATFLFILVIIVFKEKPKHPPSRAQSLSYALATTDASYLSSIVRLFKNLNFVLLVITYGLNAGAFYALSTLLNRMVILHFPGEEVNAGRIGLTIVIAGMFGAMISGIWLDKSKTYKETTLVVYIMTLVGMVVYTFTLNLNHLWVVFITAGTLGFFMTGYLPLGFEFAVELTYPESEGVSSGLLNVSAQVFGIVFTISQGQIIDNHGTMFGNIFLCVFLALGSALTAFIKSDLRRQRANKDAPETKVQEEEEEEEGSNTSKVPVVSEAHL", "experiment": "Co-IP of MFSD7C and SERCA2b in transfected 293T cells", "assay_type": "cell-based, murine", "conditions": "293T cells in the presence of MG132, heme for one hour", "method": "FIGS. 5A-5F show MFSD7C and heme regulate thermogenesis through SERCA2b in THP-1 cells. […] 30 hours later, MG132 was added into half of the cells and the other half was not treated. Another 35 hours later, some cells were treated with 40 μM heme for 1 hour before lysis. Cell lysates were immunoprecipitated with anti-FLAG antibody, and eluted, followed by anti-HA immunoprecipitation and elution. Total cell lysate and elute were subjected to Western blotting and probed with anti-SERCA2b or anti-MFSD7C antibodies. Shown are representative data from one of three experiments. […] 24 hrs later, cells were either not treated or treated with 10 μM MG132 for either 6 or 12 hours. The cells were lysed and subjected to FLAG pull-down and blotted with anti-MFSD7C, anti-SERCA2b and anti-ubiquitin antibodies. Shown are representative data from one of three experiments. […] Parental THP-1 cells were either not treated or treated with heme before lysis. Shown are representative data from one of four experiments. […] Shown are representative data from one of two experiments. […] Cells were washed and treated with 40 μM heme for one hour before flow cytometry. Representative FPT histograms from one of three experiments are shown. […] Shown are representative FPT histograms from one of three experiments. […]"}, "[5]": {"test_system": "SERCA2b", "experiment": "SERCA2b protein level by Western blotting, 4B8^FL cells", "assay_type": "cell-based, human", "conditions": "40 μM heme for one hour, reduction by MFSD7C^FL expression", "method": "FIGS. 5A-5F show MFSD7C and heme regulate thermogenesis through SERCA2b in THP-1 cells. […] 30 hours later, MG132 was added into half of the cells and the other half was not treated. Another 35 hours later, some cells were treated with 40 μM heme for 1 hour before lysis. Cell lysates were immunoprecipitated with anti-FLAG antibody, and eluted, followed by anti-HA immunoprecipitation and elution. Total cell lysate and elute were subjected to Western blotting and probed with anti-SERCA2b or anti-MFSD7C antibodies. Shown are representative data from one of three experiments. […] 24 hrs later, cells were either not treated or treated with 10 μM MG132 for either 6 or 12 hours. The cells were lysed and subjected to FLAG pull-down and blotted with anti-MFSD7C, anti-SERCA2b and anti-ubiquitin antibodies. Shown are representative data from one of three experiments. […] Parental THP-1 cells were either not treated or treated with heme before lysis. Shown are representative data from one of four experiments. […] Shown are representative data from one of two experiments. […] Cells were washed and treated with 40 μM heme for one hour before flow cytometry. Representative FPT histograms from one of three experiments are shown. […] Shown are representative FPT histograms from one of three experiments.\nEndogenous protein extraction. […]"}, "[6]": {"test_system": "Serca2b^−/− THP-1 cells", "experiment": "Thermogenesis by FPT in Serca2b knockout THP-1 cells", "assay_type": "cell-based, human", "conditions": "40 μM heme 1 hour, FPT flow cytometry", "method": "FIGS. 5A-5F show MFSD7C and heme regulate thermogenesis through SERCA2b in THP-1 cells. […] 30 hours later, MG132 was added into half of the cells and the other half was not treated. Another 35 hours later, some cells were treated with 40 μM heme for 1 hour before lysis. Cell lysates were immunoprecipitated with anti-FLAG antibody, and eluted, followed by anti-HA immunoprecipitation and elution. Total cell lysate and elute were subjected to Western blotting and probed with anti-SERCA2b or anti-MFSD7C antibodies. Shown are representative data from one of three experiments. […] 24 hrs later, cells were either not treated or treated with 10 μM MG132 for either 6 or 12 hours. The cells were lysed and subjected to FLAG pull-down and blotted with anti-MFSD7C, anti-SERCA2b and anti-ubiquitin antibodies. Shown are representative data from one of three experiments. […] Parental THP-1 cells were either not treated or treated with heme before lysis. Shown are representative data from one of four experiments. […] Shown are representative data from one of two experiments. […] Cells were washed and treated with 40 μM heme for one hour before flow cytometry. Representative FPT histograms from one of three experiments are shown. […]\nIn the second approach, we used fluorescent polymeric thermometer (FPT), which we synthesized in-house (see above). […] Then the fluorescence intensities were determined by a flow cytometer."}}, "data": [{"smiles": "C=CC1=C(C)c2cc3[n-]c(cc4[n-]c(cc5nc(cc1n2)C(C)=C5C=C)c(C)c4CCC(=O)O)c(CCC(=O)O)c3C.[Fe+2]", "note": "[heme]", "values": [{"measurement": "absorbance shift of heme (Soret band, Q band)", "setting": "[1]", "result": "concentration-dependent increase in Soret band and Q band peaks"}, {"measurement": "FPT fluorescence by flow cytometry", "setting": "[2]", "result": "almost all cells had dramatically increased fluorescence"}, {"measurement": "FTP intensity", "setting": "[3]", "result": "significantly stimulated"}, {"measurement": "co-IP of SERCA2b with MFSD7C", "setting": "[4]", "result": "abolished"}, {"measurement": "SERCA2b level", "setting": "[5]", "result": "restored"}, {"measurement": "thermogenesis following heme treatment", "setting": "[6]", "result": "significantly diminished"}]}]}
